In PMC11207571, “Applicability of MDR1 Overexpressing Abcb1KO-MDCKII Cell Lines for Investigating In Vitro Species Differences and Brain Penetration Prediction” (Pharmaceutics, 2024):

What was measured:
[1] = Bidirectional transport assay, efflux ratio in Abcb1KO-MDCKII-Mock control cells; details: dog, MDCK, pH 7.4
Experimental: (§1) Eluent A consisted of 0.1% formic acid in water, eluent B consisted of 0.1% formic acid in acetonitrile. Then, 10 µL samples were injected into the HPLC-MS/MS system. Mass spectrometric detection was performed in SRM mode, and ion transitions for each analyte were optimized during method development. Samples were analyzed in pools, with each pool containing three to four analytes.

human MDR1 [2] = target: T1, human MDR1 (Homo sapiens, UniProt P08183); test: Bidirectional transport assay, efflux ratio in Abcb1KO-MDCKII hMDR1 cells; details: for efflux ratio at 120 min, 1 µM: human, MDCK-MDR1, pH 7.4
Experimental: as §1

rat Mdr1a [3] = target: T2, rat Mdr1a (Rattus norvegicus, UniProt Q6PSM0); test: Bidirectional transport assay, efflux ratio in Abcb1KO-MDCKII rMDR1 cells; details: rat, pH 7.4
Experimental: as §1

mouse Mdr1a [4] = target: T3, mouse Mdr1a (Mus musculus, UniProt P21447); test: Bidirectional transport assay, efflux ratio in Abcb1KO-MDCKII mMDR1 cells; details: mouse, pH 7.4
Experimental: as §1

cynomolgus monkey Mdr1 [5] = target: T4, cynomolgus monkey Mdr1 (Macaca fascicularis, UniProt Q8HZQ6); test: Bidirectional transport assay, efflux ratio in Abcb1KO-MDCKII cyMDR1 cells; details: cynomolgus monkey, pH 7.4
Experimental: as §1

human BCRP = target: T5, human BCRP (Homo sapiens, UniProt Q9UNQ0); test: Bidirectional transport assay, efflux ratio in MDCKII-BCRP cells; details: human, pH 7.4
T5 sequence (Q9UNQ0 1-655): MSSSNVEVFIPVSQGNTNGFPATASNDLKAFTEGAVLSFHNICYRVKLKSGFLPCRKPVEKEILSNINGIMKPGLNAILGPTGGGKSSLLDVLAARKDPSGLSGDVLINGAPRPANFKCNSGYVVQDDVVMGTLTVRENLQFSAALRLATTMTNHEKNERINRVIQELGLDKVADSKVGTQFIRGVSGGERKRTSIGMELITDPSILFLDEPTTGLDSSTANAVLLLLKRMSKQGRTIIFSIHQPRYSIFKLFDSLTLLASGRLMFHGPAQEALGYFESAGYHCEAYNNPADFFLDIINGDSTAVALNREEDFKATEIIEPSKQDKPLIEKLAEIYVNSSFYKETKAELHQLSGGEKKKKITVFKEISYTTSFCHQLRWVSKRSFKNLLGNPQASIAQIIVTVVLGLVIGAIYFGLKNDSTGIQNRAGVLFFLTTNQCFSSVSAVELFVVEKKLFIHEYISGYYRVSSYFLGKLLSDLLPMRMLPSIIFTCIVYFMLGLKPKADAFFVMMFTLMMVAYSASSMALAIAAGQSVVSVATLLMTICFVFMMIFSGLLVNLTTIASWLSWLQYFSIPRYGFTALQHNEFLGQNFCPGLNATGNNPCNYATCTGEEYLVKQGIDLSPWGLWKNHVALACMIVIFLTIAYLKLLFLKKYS
Experimental: as §1

cynomolgus monkey Mdr1 [6] = target: T4, cynomolgus monkey Mdr1; test: cell-based
human MDR1 [7] = target: T1, human MDR1; test: Inhibition of 3H-digoxin or 3H-quinidine bidirectional transport in hMDR1 cells; details: IC50 from ER
cynomolgus monkey Mdr1 [8] = target: T4, cynomolgus monkey Mdr1; test: Inhibition of 3H-digoxin or 3H-quinidine bidirectional transport in cyMDR1 cells; details: Inhibition of quinidine transport IC50±SD, cyMDR1, probe 3H-quinidine 0.1 µM, 60 min; IC50 from ER
rat Mdr1a [9] = target: T2, rat Mdr1a; test: Inhibition of 3H-digoxin or 3H-quinidine bidirectional transport in rMDR1 cells; format: cell-based; parameters: rat Mdr1a (NM_133401.1); expressed in transfected cells; host or cells: Abcb1KO-MDCKII (canine kidney, endogenous Abcb1 knocked out), transduced, single-cell clone; details: IC50 from ER
mouse Mdr1a [10] = target: T3, mouse Mdr1a; test: Inhibition of 3H-digoxin or 3H-quinidine bidirectional transport in mMDR1 cells; format: cell-based; parameters: mouse Mdr1a (NM_011076.3); expressed in transfected cells; host or cells: Abcb1KO-MDCKII (canine kidney, endogenous Abcb1 knocked out), transduced, single-cell clone; details: IC50 from ER
hMDR1 and hBCRP = test: Brain permeability classification from total ER of hMDR1 and hBCRP against in vivo rodent Kp,uu,brain; details: total ER cut-off 3; in vivo rodent Kp,uu,brain cut-off 0.3
Experimental: MDR1 and/or BCRP substrate properties were investigated by binary classification analysis on CNS+ and CNS− compounds. […] True negative (TN), where there was no efflux and the CNS+ compound crossed the BBB. […] The sensitivity and specificity of the estimation of brain penetration along with MDR1 and BCRP activity were calculated from predictive performance metrics.
First, NET ER was calculated and used for human predictions, (2) NET ER=ER(−inh)[…]ER(+inh) where ER(−inh) is ER in the absence of inhibitor, and ER(+inh) is ER in the presence of inhibitor, for hMDR1 (ERMDR1) or hBCRP (ERBCRP).
To identify the correlation between the in vivo rodent Kp,uu,brain and ERs, 58 compounds with known Kp,uu,brain were selected. An ER of 2 was used as a cut-off to classify MDR1 substrates and a Kp,uu,brain of 0.3 was used as a threshold for CNS penetrant compounds. The resulting graphs are thus divided into four quadrants. Brain penetration (Kp,uu,brain) was used as the logical value true condition, with compounds having Kp,uu,brain ≤ 0.3 considered positive. Q2 and Q3 comprise molecules with impaired brain penetration. […] Molecules in Q4 (true negatives, TN) can freely access the brain (Figure 2). Predictive performance metrics were calculated to show the efficacy of the established cell lines in BBB permeability classification (Table 1). Sensitivity refers to the ability of the model to correctly classify CNS-restricted molecules based on MDR1 substrate nature.
Subsequently, for a more reliable prediction of brain penetration, data generated in the hBCRP cell line were included in the analysis. hBCRP assay conditions and evaluations were identical to that of MDR1 cell lines, which allowed proper comparisons (Figure 2E,F). Total ER was calculated by combining ERs determined in BCRP and hMDR1 cell lines based on Equation (3), with an ER cut-off of 3. […] Eventually, total ERs were also assessed with the Relative Expression Factor (REF) (Equation (4); Figure 2E,F). REF is an in vitro and in vivo correlation scaler, calculated from transporter protein abundances in brain microvessels versus overexpressing cell lines.

[11] = Inhibition of digoxin transport IC50±SD, hMDR1, probe 3H-digoxin 1 µM, 120 min
[12] = Inhibition of quinidine transport IC50±SD, hMDR1, probe 3H-quinidine 1 µM, 60 min
[13] = Inhibition of digoxin transport IC50±SD, rMDR1, probe 3H-digoxin 1 µM, 120 min
[14] = Inhibition of quinidine transport IC50±SD, rMDR1, probe 3H-quinidine 1 µM, 30 min
[15] = Inhibition of digoxin transport IC50±SD, mMDR1, probe 3H-digoxin 1 µM, 120 min
[16] = Inhibition of quinidine transport IC50±SD, mMDR1, probe 3H-quinidine 1 µM, 60 min

T4 sequence (Q8HZQ6 1-1283): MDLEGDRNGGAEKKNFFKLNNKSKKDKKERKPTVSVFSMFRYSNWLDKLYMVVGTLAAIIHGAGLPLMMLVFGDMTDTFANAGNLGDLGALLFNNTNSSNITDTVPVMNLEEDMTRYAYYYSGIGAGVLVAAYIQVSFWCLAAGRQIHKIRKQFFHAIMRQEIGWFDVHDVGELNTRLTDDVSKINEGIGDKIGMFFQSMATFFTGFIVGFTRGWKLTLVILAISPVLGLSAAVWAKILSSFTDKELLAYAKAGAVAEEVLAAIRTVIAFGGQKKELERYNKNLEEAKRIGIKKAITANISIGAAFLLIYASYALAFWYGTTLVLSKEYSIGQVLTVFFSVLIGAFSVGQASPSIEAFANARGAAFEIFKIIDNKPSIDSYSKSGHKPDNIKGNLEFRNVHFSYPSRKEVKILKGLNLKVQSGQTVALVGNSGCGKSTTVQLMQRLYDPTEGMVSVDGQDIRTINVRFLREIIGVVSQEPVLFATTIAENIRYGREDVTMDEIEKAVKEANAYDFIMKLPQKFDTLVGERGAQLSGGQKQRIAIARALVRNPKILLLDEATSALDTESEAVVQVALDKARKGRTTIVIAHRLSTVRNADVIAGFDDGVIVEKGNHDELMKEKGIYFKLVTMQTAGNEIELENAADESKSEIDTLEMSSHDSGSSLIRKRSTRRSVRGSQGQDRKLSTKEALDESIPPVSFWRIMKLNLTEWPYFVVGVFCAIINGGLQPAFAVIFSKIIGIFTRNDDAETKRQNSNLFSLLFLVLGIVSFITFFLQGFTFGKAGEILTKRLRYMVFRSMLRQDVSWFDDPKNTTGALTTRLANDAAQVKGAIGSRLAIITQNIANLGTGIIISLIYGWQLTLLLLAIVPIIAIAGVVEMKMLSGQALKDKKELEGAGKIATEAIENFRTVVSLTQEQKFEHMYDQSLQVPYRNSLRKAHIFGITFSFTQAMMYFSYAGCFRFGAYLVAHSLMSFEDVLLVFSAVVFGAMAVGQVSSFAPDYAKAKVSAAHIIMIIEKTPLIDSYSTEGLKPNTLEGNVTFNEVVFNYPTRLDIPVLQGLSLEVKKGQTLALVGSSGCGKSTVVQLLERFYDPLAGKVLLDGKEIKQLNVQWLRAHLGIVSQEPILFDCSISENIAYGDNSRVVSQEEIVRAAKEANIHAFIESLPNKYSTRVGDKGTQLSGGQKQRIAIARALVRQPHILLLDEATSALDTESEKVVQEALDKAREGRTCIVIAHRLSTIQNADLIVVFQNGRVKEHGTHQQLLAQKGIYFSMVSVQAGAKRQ
T2 sequence (Q6PSM0 1-1272): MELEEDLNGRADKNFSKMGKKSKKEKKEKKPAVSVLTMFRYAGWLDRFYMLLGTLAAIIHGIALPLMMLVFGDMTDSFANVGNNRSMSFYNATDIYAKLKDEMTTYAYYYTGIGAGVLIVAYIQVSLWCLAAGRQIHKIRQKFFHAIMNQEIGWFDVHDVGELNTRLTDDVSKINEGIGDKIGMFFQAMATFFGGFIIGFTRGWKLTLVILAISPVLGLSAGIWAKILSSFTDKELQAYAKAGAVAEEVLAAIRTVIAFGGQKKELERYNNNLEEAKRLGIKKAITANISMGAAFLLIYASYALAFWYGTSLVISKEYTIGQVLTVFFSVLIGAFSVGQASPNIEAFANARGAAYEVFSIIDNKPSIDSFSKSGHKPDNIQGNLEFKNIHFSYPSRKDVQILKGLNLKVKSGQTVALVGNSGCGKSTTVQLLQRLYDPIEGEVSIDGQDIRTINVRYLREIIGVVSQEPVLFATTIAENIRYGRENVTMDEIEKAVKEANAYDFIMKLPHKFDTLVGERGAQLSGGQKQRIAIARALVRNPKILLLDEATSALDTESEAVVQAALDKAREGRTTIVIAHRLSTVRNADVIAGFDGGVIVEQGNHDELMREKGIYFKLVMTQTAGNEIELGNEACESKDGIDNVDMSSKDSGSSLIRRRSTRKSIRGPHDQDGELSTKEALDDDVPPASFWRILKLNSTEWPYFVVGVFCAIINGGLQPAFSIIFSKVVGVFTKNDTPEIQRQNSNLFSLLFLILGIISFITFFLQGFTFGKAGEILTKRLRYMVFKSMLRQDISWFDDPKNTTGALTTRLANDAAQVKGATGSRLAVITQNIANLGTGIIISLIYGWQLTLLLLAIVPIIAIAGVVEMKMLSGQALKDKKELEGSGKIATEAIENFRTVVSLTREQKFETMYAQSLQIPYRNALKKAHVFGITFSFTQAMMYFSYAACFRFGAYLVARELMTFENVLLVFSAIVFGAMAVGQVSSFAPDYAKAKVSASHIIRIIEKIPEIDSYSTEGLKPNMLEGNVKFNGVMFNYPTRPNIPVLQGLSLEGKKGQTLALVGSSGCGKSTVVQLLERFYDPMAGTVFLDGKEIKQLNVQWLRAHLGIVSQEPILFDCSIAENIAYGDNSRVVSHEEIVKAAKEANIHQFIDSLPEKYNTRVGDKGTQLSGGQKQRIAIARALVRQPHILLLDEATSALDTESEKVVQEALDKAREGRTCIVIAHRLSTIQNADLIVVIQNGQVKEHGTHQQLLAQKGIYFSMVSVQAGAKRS
T1 sequence (P08183 whole entry): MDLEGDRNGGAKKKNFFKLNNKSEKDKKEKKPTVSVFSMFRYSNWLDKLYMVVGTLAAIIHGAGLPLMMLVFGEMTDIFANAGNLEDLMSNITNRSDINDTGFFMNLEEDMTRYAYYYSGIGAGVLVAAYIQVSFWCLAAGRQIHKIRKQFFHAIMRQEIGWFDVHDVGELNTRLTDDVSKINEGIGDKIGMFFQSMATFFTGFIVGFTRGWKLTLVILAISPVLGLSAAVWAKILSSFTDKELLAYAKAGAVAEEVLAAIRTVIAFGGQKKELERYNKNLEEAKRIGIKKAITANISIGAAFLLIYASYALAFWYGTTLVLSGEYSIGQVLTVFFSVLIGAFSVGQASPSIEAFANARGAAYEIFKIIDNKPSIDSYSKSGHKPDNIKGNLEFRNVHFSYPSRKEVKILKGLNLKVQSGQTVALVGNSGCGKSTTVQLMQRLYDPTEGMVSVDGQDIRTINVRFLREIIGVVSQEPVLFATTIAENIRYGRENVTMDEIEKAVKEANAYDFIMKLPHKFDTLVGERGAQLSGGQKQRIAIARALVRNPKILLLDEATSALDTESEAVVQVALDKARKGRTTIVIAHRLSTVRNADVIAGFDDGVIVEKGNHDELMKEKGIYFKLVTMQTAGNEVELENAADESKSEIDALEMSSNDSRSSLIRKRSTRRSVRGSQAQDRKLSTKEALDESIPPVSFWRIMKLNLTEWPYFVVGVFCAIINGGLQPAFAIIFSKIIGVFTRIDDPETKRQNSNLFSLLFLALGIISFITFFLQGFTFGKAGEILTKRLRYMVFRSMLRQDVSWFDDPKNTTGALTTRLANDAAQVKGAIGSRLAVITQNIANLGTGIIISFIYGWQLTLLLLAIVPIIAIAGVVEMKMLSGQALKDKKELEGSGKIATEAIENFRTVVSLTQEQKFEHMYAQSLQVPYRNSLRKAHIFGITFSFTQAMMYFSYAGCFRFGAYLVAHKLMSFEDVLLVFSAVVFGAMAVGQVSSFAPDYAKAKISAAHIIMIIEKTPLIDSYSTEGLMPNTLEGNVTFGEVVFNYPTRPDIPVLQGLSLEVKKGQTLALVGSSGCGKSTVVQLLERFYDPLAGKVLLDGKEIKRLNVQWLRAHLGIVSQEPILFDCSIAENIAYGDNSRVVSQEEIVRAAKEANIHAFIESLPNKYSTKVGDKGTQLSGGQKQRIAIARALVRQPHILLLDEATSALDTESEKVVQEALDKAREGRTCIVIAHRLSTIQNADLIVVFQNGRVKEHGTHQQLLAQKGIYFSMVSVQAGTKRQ
T3 sequence (P21447 whole entry): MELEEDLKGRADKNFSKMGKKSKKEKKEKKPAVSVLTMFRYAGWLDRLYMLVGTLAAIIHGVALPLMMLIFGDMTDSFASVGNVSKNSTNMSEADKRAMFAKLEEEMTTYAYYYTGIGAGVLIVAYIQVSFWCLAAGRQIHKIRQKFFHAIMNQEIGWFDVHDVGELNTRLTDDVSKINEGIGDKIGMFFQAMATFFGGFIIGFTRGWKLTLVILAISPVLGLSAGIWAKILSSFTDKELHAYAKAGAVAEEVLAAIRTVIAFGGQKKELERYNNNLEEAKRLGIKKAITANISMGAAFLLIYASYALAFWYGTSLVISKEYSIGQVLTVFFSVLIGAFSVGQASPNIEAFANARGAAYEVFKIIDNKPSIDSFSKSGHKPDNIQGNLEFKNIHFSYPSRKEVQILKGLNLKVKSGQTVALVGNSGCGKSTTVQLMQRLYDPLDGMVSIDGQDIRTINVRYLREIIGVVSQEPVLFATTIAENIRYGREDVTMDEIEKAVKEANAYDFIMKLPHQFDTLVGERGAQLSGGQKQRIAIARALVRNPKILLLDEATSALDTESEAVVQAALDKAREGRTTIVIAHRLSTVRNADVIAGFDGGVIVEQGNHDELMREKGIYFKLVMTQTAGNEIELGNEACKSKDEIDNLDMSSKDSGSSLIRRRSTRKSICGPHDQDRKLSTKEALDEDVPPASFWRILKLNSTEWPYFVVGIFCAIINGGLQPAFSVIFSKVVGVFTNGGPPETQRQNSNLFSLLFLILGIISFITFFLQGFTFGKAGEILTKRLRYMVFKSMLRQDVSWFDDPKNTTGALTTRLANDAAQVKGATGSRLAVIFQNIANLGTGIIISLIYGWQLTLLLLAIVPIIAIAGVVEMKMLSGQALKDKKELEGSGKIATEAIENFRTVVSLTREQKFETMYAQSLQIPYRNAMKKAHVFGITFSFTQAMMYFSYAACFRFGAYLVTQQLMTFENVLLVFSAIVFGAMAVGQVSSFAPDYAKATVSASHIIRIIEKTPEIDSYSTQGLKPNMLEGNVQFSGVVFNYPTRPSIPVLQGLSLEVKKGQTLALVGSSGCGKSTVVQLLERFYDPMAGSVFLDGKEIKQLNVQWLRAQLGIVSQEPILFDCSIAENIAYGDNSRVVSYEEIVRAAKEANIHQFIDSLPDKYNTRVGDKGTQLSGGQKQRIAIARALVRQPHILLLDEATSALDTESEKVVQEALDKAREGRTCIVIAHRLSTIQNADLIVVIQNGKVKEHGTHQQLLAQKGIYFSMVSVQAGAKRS

SMILES | efflux ratio at 120 min, 1 µM [1] | efflux ratio at 120 min, 1 µM (human MDR1 [2]) | efflux ratio at 120 min, 1 µM (rat Mdr1a [3]) | efflux ratio at 120 min, 1 µM (mouse Mdr1a [4]) | efflux ratio at 120 min, 1 µM (cynomolgus monkey Mdr1 [5]) | efflux ratio at 120 min, 1 µM (human BCRP) | IC50 (cynomolgus monkey Mdr1 [6]) [nM] | IC50 (human MDR1 [7]; [11]) [nM] | IC50 (human MDR1 [7]; [12]) [nM] | IC50 (cynomolgus monkey Mdr1 [8]) [nM] | IC50 (rat Mdr1a [9]; [13]) [nM] | IC50 (rat Mdr1a [9]; [14]) [nM] | IC50 (mouse Mdr1a [10]; [15]) [nM] | IC50 (mouse Mdr1a [10]; [16]) [nM] | CNS penetration classification based on hMDR1 ER alone (human MDR1 [2]; ER cut-off 2, in vivo rodent Kp,uu,brain cut-off 0.3) | CNS penetration classification based on total ER (hMDR1 + hBCRP) (hMDR1 and hBCRP)
COc1ccccc1OCCNCC(O)COc1cccc2[nH]c3ccccc3c12 (stereo not shown) [Carvedilol] | 0.62 ± 0.04 | 14.5 ± 0.62 | 2.13 ± 0.08 | 1.94 ± 0.21 | 1.12 ± 0.06 | 2.38 ± 0.23 | 1550 ± 590 | 19100 ± 7450 | 410 ± 240 | 1020 ± 790 | 4220 ± 1000 | 1010 ± 130 | 2000 ± 550 | 1640 ± 900 |  | 
COc1cc2c(cc1OC)CN(CCc1ccc(NC(=O)c3cccc4c(=O)c5cccc(OC)c5[nH]c34)cc1)CC2 [Elacridar] |  |  |  |  |  |  | 90 ± 30 |  |  | 110 ± 80 | 320 ± 150 | 60 | 100 ± 70 | 200 ± 40 |  | 
CCN(CC)C(=O)/C(C#N)=C/c1cc(O)c(O)c([N+](=O)[O-])c1 [Entacapone] | 0.32 ± 0.02 | 0.28 ± 0.02 | 0.39 ± 0.03 | 0.34 ± 0.05 | 0.46 ± 0.07 | 49.4 ± 3.92 |  |  |  |  |  |  |  |  | false negatives | true positives
CCOC(=O)C1=C(C)NC(C)=C(C(=O)OC)C1c1cccc(Cl)c1Cl (stereo not shown) [Felodipine] |  |  |  |  |  |  | 12400 ± 5740 |  |  | 50700 ± 19700 | > 100000 | 40600 ± 7710 | 28600 ± 7950 | > 100000 |  | 
N=C(N)N/N=C/c1c(Cl)cccc1Cl [Guanabenz] | 0.93 ± 0.15 | 0.82 ± 0.1 | 0.85 ± 0.13 | 1.08 ± 0.09 | 0.84 ± 0.1 | 3.35 ± 1.17 |  |  |  |  |  |  |  |  |  | false positives
COC(=O)C1=C(C)NC(C)=C(C(=O)OC(C)C)C1c1cccc2nonc12 (stereo not shown) [Isradipine] |  |  |  |  |  |  | 10600 ± 4730 | > 50000 | 2070 ± 1280 | 19300 ± 5760 | 15200 ± 2840 | 13600 ± 9370 | 5280 ± 2940 | 19300 ± 3750 |  | 
CCC(C)n1ncn(-c2ccc(N3CCN(c4ccc(OCC5COC(Cn6cncn6)(c6ccc(Cl)cc6Cl)O5)cc4)CC3)cc2)c1=O (stereo not shown) [Itraconazole] |  |  |  |  |  |  | 360 ± 190 |  |  | 320 ± 120 | 4410 ± 1050 | 150 ± 70 | 1390 ± 500 | 480 ± 110 |  | 
